# Where two headings read alike, the source gives them in different places.
# What was measured:
# [1] = target: GSK3α (GST-full length GSK3α) (Homo sapiens (Human), UniProt P49840); experiment: GSK3α TR-FRET kinase assay; assay type: biochemical
# Procedure, shortened: (§1)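 IC50s came from the normalized 665/615 TR-FRET ratio after Tb-anti-pSer641 antibody and streptavidin-d2 detection of phosphorylated biotin-glycogen synthase peptide (200 nM). ATP was 4 μM for GSK3α, 2 μM for GSK3b, or 1 mM; 1 nM enzyme, 100 min, ambient, pH 7.5, after 30-min compound preincubation.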
# [2] = target: GSK3b (GST-full length GSK3b) (Homo sapiens (Human), UniProt P49841); experiment: GSK3b TR-FRET kinase assay; assay type: biochemical
# Chain of GSK3b (GST-full length GSK3b) (P49841 whole entry): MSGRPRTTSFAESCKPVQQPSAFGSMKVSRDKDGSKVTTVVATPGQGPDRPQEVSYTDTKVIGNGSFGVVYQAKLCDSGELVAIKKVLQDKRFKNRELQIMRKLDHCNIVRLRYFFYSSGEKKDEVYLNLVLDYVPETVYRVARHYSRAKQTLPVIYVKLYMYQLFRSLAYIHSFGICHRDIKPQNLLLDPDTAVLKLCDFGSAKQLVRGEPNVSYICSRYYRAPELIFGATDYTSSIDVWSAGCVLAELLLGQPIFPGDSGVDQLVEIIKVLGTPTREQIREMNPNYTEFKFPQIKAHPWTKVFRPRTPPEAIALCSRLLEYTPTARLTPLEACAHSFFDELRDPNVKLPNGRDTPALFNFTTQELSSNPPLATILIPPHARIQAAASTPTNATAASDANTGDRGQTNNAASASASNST
# Procedure, shortened: as §1
# [3] = 1 nM GSK3α, 4 μM ATP, 30 minute preincubation, Table 16, read-out: GSK3-A TR-FRET BIOCHEMICAL (TR-FRET)
# [4] = GSK3-A (TR-FRET 1 mM ATP), GMean, IC50, 1 mM ATP, geometric mean
# [5] = 1 nM GSK3b, 2 μM ATP, 30 minute preincubation, Table 16, read-out: GSK3-B TR-FRET BIOCHEMICAL (TR-FRET)
# [6] = GSK3-B (TR-FRET 1 mM ATP), GMean, IC50, 1 mM ATP, geometric mean
# [7] = 1 nM GSK3α, 4 μM ATP, 30 minute preincubation, geometric mean, read-out: GSK3-A TR-FRET BIOCHEMICAL (TR-FRET), GMean, IC50
# [8] = read-out: GSK3-A (TR-FRET 1 mM ATP), GMean, IC50, 1 mM ATP, geometric mean
# [9] = 1 nM GSK3b, 2 μM ATP, 30 minute preincubation, geometric mean, read-out: GSK3-B TR-FRET BIOCHEMICAL (TR-FRET), GMean, IC50
# [10] = read-out: GSK3-B (TR-FRET 1 mM ATP), GMean, IC50, 1 mM ATP, geometric mean
# [11] = 1 nM GSK3α, 4 μM ATP, 30 minute preincubation, read-out: GSK3-A TR-FRET BIOCHEMICAL (TR-FRET), IC50
# [12] = 1 nM GSK3b, 2 μM ATP, 30 minute preincubation, read-out: GSK3-B TR-FRET BIOCHEMICAL (TR-FRET), IC50
# Chain of GSK3α (GST-full length GSK3α) (P49840 whole entry): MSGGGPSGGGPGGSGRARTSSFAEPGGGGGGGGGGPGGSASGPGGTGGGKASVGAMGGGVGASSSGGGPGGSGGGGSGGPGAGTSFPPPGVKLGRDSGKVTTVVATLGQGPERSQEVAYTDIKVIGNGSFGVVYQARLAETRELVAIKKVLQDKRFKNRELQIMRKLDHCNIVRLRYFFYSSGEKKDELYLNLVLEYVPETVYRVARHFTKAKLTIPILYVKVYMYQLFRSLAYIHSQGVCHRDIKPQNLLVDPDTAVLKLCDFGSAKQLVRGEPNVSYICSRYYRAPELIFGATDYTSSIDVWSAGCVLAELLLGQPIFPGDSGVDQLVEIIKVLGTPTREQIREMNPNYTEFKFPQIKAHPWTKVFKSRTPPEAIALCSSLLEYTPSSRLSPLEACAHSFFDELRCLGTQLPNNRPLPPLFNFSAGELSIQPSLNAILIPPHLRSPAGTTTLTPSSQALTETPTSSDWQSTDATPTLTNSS
"IC50 [1, 7] [nM]","IC50 [2, 9] [nM]",Compound,also measured
≤ 100,≤ 100,CCC1(c2cccc(-c3ccncc3C)c2)C2=C(CC(C)(COC)NC2=O)Nc2n[nH]cc21 (stereo not shown) [Compound 948147],–
≤ 100,≤ 100,CCC1(c2cccc(-c3cncn3C)c2)C2=C(CC(C)(C)NC2=O)Nc2n[nH]c(C(F)(F)F)c21 (stereo not shown) [Compound 948180],–
≤ 100,100 to 1000,CC[C@]1(c2cccc(-c3ccnc(C)c3C)c2)C2=C(CC(C)(C)NC2=O)Nc2n[nH]cc21 [Compound 948184],"IC50 [1, 8]: 100 to 1000 nM; IC50 [2, 10]: 1000 to 5000 nM"
≤ 100,≤ 100,CCC1(c2cccc(-c3ccnc(C)c3C)c2)C2=C(CC(C)(C)NC2=O)Nc2n[nH]c(C(F)(F)F)c21 (stereo not shown) [Compound 948185],"IC50 [1, 8]: ≤ 100 nM; IC50 [2, 10]: ≤ 100 nM"
1000 to 5000,> 5000,CC[C@]1(c2cccc(C(F)(F)F)c2)C2=C(CCN(c3ccc(OC)cc3)C2=O)Nc2n[nH]cc21 [Compound 948227],–
≤ 100,100 to 1000,CCC1(c2cccc(C(F)(F)F)c2)C2=C(CCN(c3ccc(C)cc3)C2=O)Nc2n[nH]cc21 (stereo not shown) [Compound 948241],–
≤ 100,≤ 100,CCC1(c2cccc(-c3ccnc(C)c3F)c2)C2=C(CC(C)(C)NC2=O)Nc2n[nH]c(C(F)(F)F)c21 (stereo not shown) [Compound 948297],–
≤ 100,≤ 100,CCC1(c2cccc(-c3cn(C)nc3C)c2)C2=C(CC(C)(C)NC2=O)Nc2n[nH]c(F)c21 (stereo not shown) [Compound 948301],–
≤ 100,≤ 100,CCC1(c2cccc(S(=O)(=O)C3CC3)c2)C2=C(CC(C)(C)N(C)C2=O)Nc2n[nH]cc21 (stereo not shown) [Compound 948303],–
≤ 100,≤ 100,CCC1(c2cccc(-c3cn(C)nc3C)c2)C2=C(CC(C)(C)N(C)C2=O)Nc2n[nH]cc21 (stereo not shown) [Compound 948304],–
≤ 100,≤ 100,CC[C@]1(c2cccc(-c3cn[nH]c3)c2)C2=C(CC(C)(C)NC2=O)Nc2n[nH]c(C(F)(F)F)c21 [Compound 948307],"IC50 [1, 8]: ≤ 100 nM; IC50 [2, 10]: ≤ 100 nM"
> 5000,> 5000,CCC1(c2cccc(-c3ccnc4c3CCC4)c2)C2=C(CC(C)(C)NC2=O)Nc2n[nH]cc21 (stereo not shown) [Compound 948308],–
1000 to 5000,> 5000,CCc1cc(-c2cccc([C@]3(CC)C4=C(CC(C)(C)NC4=O)Nc4n[nH]cc43)c2)ccn1 [Compound 948360],–

# Second part, the compound before the results:
Compound,"IC50 [1, 7] [nM]","IC50 [2, 9] [nM]",also measured
CC1(C)CC(=O)C2=C(C1)Nc1n[nH]cc1C21CCN(S(=O)(=O)c2cc(F)ccc2F)CC1 [Compound 948121],–,–,"IC50 [1, 3]: ≤ 100 nM; IC50 [1, 4]: 100 to 1000 nM; IC50 [2, 5]: ≤ 100 nM; IC50 [2, 6]: 100 to 1000 nM"
CC1(C)CC(=O)C2=C(C1)Nc1n[nH]cc1C21CCN(S(=O)(=O)c2cc(Cl)ccc2Cl)CC1 [Compound 948122],–,–,"IC50 [1, 3]: ≤ 100 nM; IC50 [2, 5]: 100 to 1000 nM"
CC1(C)CC(=O)C2=C(C1)Nc1n[nH]cc1C21CCN(S(=O)(=O)c2cnn(CC(F)(F)F)c2)CC1 [Compound 948123],–,–,"IC50 [1, 3]: ≤ 100 nM; IC50 [1, 4]: 100 to 1000 nM; IC50 [2, 5]: ≤ 100 nM; IC50 [2, 6]: 100 to 1000 nM"
CCC1(c2cccc(-c3ccncc3Cl)c2)C2=C(CC(C)(C)NC2=O)Nc2n[nH]cc21 (stereo not shown) [Compound 948142],≤ 100,≤ 100,"IC50 [1, 8]: ≤ 100 nM; IC50 [2, 10]: 100 to 1000 nM"
CC[C@]1(c2cccc(-c3ccnc4nc(C)ccc34)c2)C2=C(CC(C)(C)NC2=O)Nc2n[nH]cc21 [Compound 948143],≤ 100,100 to 1000,–
CCC1(c2cccc(-c3c(F)cncc3OC)c2)C2=C(CC(C)(C)NC2=O)Nc2n[nH]cc21 (stereo not shown) [Compound 948145],100 to 1000,> 5000,–
CC[C@@]1(c2cccc(-c3ccnc(C)c3)c2)C2=C(C[C@@]3(CCCOC3)NC2=O)Nc2n[nH]cc21 [Compound 948146],1000 to 5000,> 5000,–
CCC1(c2cccc(-c3ccnc(C)c3)c2)C2=C(CC3(CCOC3)NC2=O)Nc2n[nH]cc21 (stereo not shown) [Compound 948148],1000 to 5000,> 5000,–
CC[C@]1(c2cccc(-c3ccnc(C)c3)c2)C2=C(C[C@]3(CCOC3)NC2=O)Nc2n[nH]cc21 [Compound 948149],≤ 100,100 to 1000,–
CCC1(c2cccc(-c3ccnc4nc(C)ccc34)c2)C2=C(CC(C)(C)NC2=O)Nc2n[nH]cc21 (stereo not shown) [Compound 948151],100 to 1000,> 5000,–
CCC1(c2cccc(-c3ccnc(C)c3)c2)C2=C(CC3(CCCOC3)NC2=O)Nc2n[nH]cc21 (stereo not shown) [Compound 948152],≤ 100,100 to 1000,–
CCC1(c2cccc(-c3ccnc(C)c3)c2)C2=C(CC3(CCCOC3)NC2=O)Nc2n[nH]cc21 (stereo not shown) [Compound 948153],> 5000,> 5000,–
CC1(C)CC(=O)C2=C(C1)Nc1n[nH]cc1[C@]21COC2(CN(C(=O)C(F)(F)F)C2)C1 [Compound 948156],–,–,"IC50 [1, 11]: ≤ 100 nM; IC50 [2, 12]: 100 to 1000 nM"
CCC1(c2cccc(N(C)c3ncccn3)c2)C2=C(CC(C)(C)NC2=O)Nc2n[nH]c(C(F)(F)F)c21 (stereo not shown) [Compound 948176],≤ 100,≤ 100,–
CCC1(c2cccc(S(=O)(=O)CC3CC3)c2)C2=C(CC(C)(C)NC2=O)Nc2n[nH]cc21 (stereo not shown) [Compound 948177],≤ 100,100 to 1000,–
CCC1(c2cccc(S(=O)(=O)CC3CC3)c2)C2=C(CC(C)(C)NC2=O)Nc2n[nH]c(C(F)(F)F)c21 (stereo not shown) [Compound 948179],≤ 100,≤ 100,–
CC[C@]1(c2cccc(-c3ccnc(C)c3C)c2)C2=C(CC(C)(C)NC2=O)Nc2n[nH]c(C(F)(F)F)c21 [Compound 948181],100 to 1000,100 to 1000,–

Compound,"IC50 [1, 7] [nM]","IC50 [2, 9] [nM]",also measured
CCC1(c2cccc(-c3ccnc(C)c3C)c2)C2=C(CC(C)(C)NC2=O)Nc2n[nH]c(C)c21 (stereo not shown) [Compound 948187],≤ 100,≤ 100,–
CCC1(c2cccc(C(F)(F)F)c2)C2=C(Nc3n[nH]cc31)c1ccccc1C2=O (stereo not shown) [Compound 948205],–,–,"IC50 ([1]; 1 nM GSK3α, 4 μM ATP, 30 minute preincubation, Table 16, read-out: GSK3-A TR-FRET BIOCHEMICAL (TR-FRET), IC50): ≤ 100 nM; IC50 [1, 4]: 100 to 1000 nM; IC50 ([2]; 1 nM GSK3b, 2 μM ATP, 30 minute preincubation, Table 16, read-out: GSK3-B TR-FRET BIOCHEMICAL (TR-FRET), IC50): ≤ 100 nM; IC50 [2, 6]: 100 to 1000 nM"
Cc1cc(C)cc(C(=O)N2CC3(C2)CC2(CO3)C3=C(CC(C)(C)CC3=O)Nc3n[nH]cc32)c1 (stereo not shown) [Compound 948222],–,–,"IC50 [1, 11]: 100 to 1000 nM; IC50 [2, 12]: 1000 to 5000 nM"
Cc1cc(C)cc(C(=O)N2CC3(C2)C[C@]2(CO3)C3=C(CC(C)(C)CC3=O)Nc3n[nH]cc32)c1 [Compound 948223],–,–,"IC50 [1, 11]: ≤ 100 nM; IC50 [1, 8]: 100 to 1000 nM; IC50 [2, 12]: ≤ 100 nM; IC50 [2, 10]: 100 to 1000 nM"
CC[C@@]1(c2cccc(C(F)(F)F)c2)C2=C(CCN(c3ccc(F)cc3)C2=O)Nc2n[nH]cc21 [Compound 948224],≤ 100,100 to 1000,–
CC[C@]1(c2cccc(C(F)(F)F)c2)C2=C(CCN(c3ccc(F)cc3)C2=O)Nc2n[nH]cc21 [Compound 948225],1000 to 5000,> 5000,–
CC1(C)CC(=O)C2=C(C1)Nc1n[nH]cc1C21CN(c2ccccc2)C1 [Compound 948298],–,–,"IC50 [1, 3]: ≤ 100 nM; IC50 [2, 5]: ≤ 100 nM"
CCC1(c2cccc(-c3ccnc(C)c3)c2)C2=C(CC(C)(C)NC2=O)Nc2n[nH]c(F)c21 (stereo not shown) [Compound 948299],≤ 100,1000 to 5000,–
CCC1(c2cccc(-c3ccnc(C)c3)c2)C2=C(CC(C)(C)N(C)C2=O)Nc2n[nH]cc21 (stereo not shown) [Compound 948302],≤ 100,100 to 1000,–
CCC1(c2cccc(C(F)F)c2)C2=C(CC(C)(C)NC2=O)Nc2n[nH]c(C(F)(F)F)c21 (stereo not shown) [Compound 948305],≤ 100,≤ 100,–
CC[C@]1(c2cccc(-c3ccnc(C)c3F)c2)C2=C(CC(C)(C)NC2=O)Nc2n[nH]cc21 [Compound 948306],≤ 100,100 to 1000,–
CC[C@@]1(c2cccc(-c3cn[nH]c3)c2)C2=C(CC(C)(C)NC2=O)Nc2n[nH]c(C(F)(F)F)c21 [Compound 948312],≤ 100,100 to 1000,–
CC[C@@]1(c2cccc(-c3ccnc4c3CCC4)c2)C2=C(CC(C)(C)NC2=O)Nc2n[nH]cc21 [Compound 948313],≤ 100,≤ 100,"IC50 [1, 8]: 100 to 1000 nM; IC50 [2, 10]: 1000 to 5000 nM"
CCC1(c2cccc(-c3cn(C)nc3C)c2)C2=C(CC(C)(C)NC2=O)Nc2n[nH]c(C(F)(F)F)c21 (stereo not shown) [Compound 948314],≤ 100,≤ 100,"IC50 [1, 8]: ≤ 100 nM; IC50 [2, 10]: ≤ 100 nM"
CC(=O)N1CC[C@]2(C1)C[C@]1(CO2)C2=C(CC(C)(C)CC2=O)Nc2n[nH]cc21 [Compound 948319],–,–,"IC50 [1, 11]: ≤ 100 nM; IC50 [2, 12]: 100 to 1000 nM"
CC(=O)N1CC[C@@]2(C1)C[C@]1(CO2)C2=C(CC(C)(C)CC2=O)Nc2n[nH]cc21 [Compound 948320],–,–,"IC50 [1, 11]: 100 to 1000 nM; IC50 [2, 12]: 1000 to 5000 nM"

# — patent publication US20250313563A1, “GLYCOGEN SYNTHASE KINASE 3 INHIBITORS AND USES THEREOF” (The Broad Institute, Inc., priority 2022, published 2025)
